In US10183009B2, “Therapeutic compounds and uses thereof” (GENENTECH, INC., priority 2014, dated 2019) one finds IC50 data, which are given here for 12 molecules.

SMILES strings stand for the structures.

The first test has as its target BRD4(BD1) (Homo sapiens (Human), UniProt O60885). Description: BRD4 AlphaLisa Binding Assay.
Conditions: not given
On the technique in general: In Alpha technology, singlet oxygen from a donor bead excites a nearby acceptor bead.
The term IC50 denotes the concentration that inhibits the measured activity by half. A high value points to weaker potency. In turn, `C/C=C/Cn1cc(-c2cc(C(=O)NCC(F)F)ccc2OC)c2cc[nH]c2c1=O` [Example 69, 3-[6-[(E)-but-2-enyl]-7-oxo-1H-pyrrolo[2,3-c]pyridin-4-yl]-N-(2,2-difluoroethyl)-4-methoxy-benzamide] had a concentration for half-maximal inhibition (IC50) of 320 nM.

`C/C=C/Cn1cc(-c2cc(C(=O)NC3CCC3)ccc2OC)c2cc[nH]c2c1=O` [Example 75, 3-[6-[(E)-but-2-enyl]-7-oxo-1H-pyrrolo[2,3-c]pyridin-4-yl]-N-cyclobutyl-4-methoxy-benzamide] yielded a half-maximal inhibitory concentration (IC50) of 1300 nM.

`C/C=C/Cn1cc(-c2cc(C(=O)NCC3CC3)ccc2OC)c2cc[nH]c2c1=O` [Example 76, 3-[6-[(E)-but-2-enyl]-7-oxo-1H-pyrrolo[2,3-c]pyridin-4-yl]-N-(cyclopropylmethyl)-4-methoxy-benzamide] returned an IC50 of 1200 nM.

Molecule `C/C=C/Cn1cc(-c2ccc3c(c2)NC(C)CC(=O)N3)c2cc[nH]c2c1=O` (stereo not drawn) [Example 84, 7-[6-[(E)-but-2-enyl]-7-oxo-1H-pyrrolo[2,3-c]pyridin-4-yl]-4-methyl-1,3,4,5-tetrahydro-1,5-benzodiazepin-2-one] yielded an IC50 of 1900 nM.

`CCCCn1cc(-c2cccc(C(=O)N(C)C)c2)c2cc(C)[nH]c2c1=O` [Example 86, 3-(6-butyl-2-methyl-7-oxo-1H-pyrrolo[2,3-c]pyridin-4-yl)-N,N-dimethyl-benzamide] displayed a concentration for half-maximal inhibition (IC50) of 2300 nM.

For another test, the target named is TAF1-BD2 (Homo sapiens (Human), UniProt P21675). In words: TAF1-BD2 TR-FRET Binding Assay. The settings on record: Assay: TAF-1. (In general: TR-FRET usually uses a lanthanide donor and a delayed reading to cut background.)
Chain of TAF1-BD2 (P21675 1525-1656 limits assumed): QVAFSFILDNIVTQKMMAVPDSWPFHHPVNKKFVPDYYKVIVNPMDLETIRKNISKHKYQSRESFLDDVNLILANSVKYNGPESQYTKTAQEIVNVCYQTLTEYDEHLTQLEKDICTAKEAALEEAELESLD
Method: Specifically, in a 384 well ProxiPlate TAF1-BD2 (6 nM final) was combined with biotin-ligand (50 nM final) in 50 mM HEPES (pH 7.5), 50 mM NaCl, 1 mM TCEP, 0.01% (w/v) BSA, and 0.008% (w/v) Brij-35 either in the presence of DMSO (final 0.2% DMSO) or compound dilution series in DMSO. After 10 minutes incubation at room temperature, a mixture Eu-W1024 Anti-6×His antibody (Perkin Elmer AD0110) and SureLight™ Allophycocyanin-Streptavidin (APC-SA, Perkin Elmer CR130-100) were added to a final concentrations of 0.2 nMolar antibody and 25 nMolar APC-SA, respectively. After twenty minutes of equilibration, the plates were read on an Envision instrument and IC50s calculated using a four parameter non-linear curve fit.
As to `CC(C)=CCn1cc(-c2cccc(C(=O)N(C)C)c2)c2cc[nH]c2c1=O` [Example 3, N,N-dimethyl-3-[6-(3-methylbut-2-enyl)-7-oxo-1H-pyrrolo[2,3-c]pyridin-4-yl]benzamide], the IC50 was determined as 5200 nM.

Consider `CN(C)C(=O)c1cccc(-c2cn(CC3CC3)c(=O)c3[nH]ccc23)c1` [Example 17, 3-[6-(cyclopropylmethyl)-7-oxo-1H-pyrrolo[2,3-c]pyridin-4-yl]-N,N-dimethyl-benzamide], for which the IC50 was determined as 5600 nM. The IC50 values of the last two molecules are within 1.5-fold of each other.

`C/C=C/Cn1cc(-c2cccc(C(=O)NC)c2)c2cc[nH]c2c1=O` [Example 25, 3-[6-[(E)-but-2-enyl]-7-oxo-1H-pyrrolo[2,3-c]pyridin-4-yl]-N-methyl-benzamide] returned a half-inhibitory concentration (IC50) of 640 nM.

With `C/C=C/Cn1cc(-c2ccc(CO)cc2)c2cc[nH]c2c1=O` [Example 29, 6-[(E)-but-2-enyl]-4-[4-(hydroxymethyl)phenyl]-1H-pyrrolo[2,3-c]pyridin-7-one], the IC50 was determined as 4500 nM.

In the case of `C/C=C/Cn1cc(-c2ccc(C(=O)N(C)C)c(Cl)c2)c2cc[nH]c2c1=O` [Example 43, 4-[6-[(E)-but-2-enyl]-7-oxo-1H-pyrrolo[2,3-c]pyridin-4-yl]-2-chloro-N,N-dimethyl-benzamide], the 50% inhibitory concentration (IC50) stood at 2000 nM. This IC50 is about 2.2-fold lower than that of the molecule before.

`C/C=C/Cn1cc(-c2cc(C(=O)N3CCC3)ccc2OC)c2cc[nH]c2c1=O` [Example 71, 4-[5-(azetidine-1-carbonyl)-2-methoxy-phenyl]-6-[(E)-but-2-enyl]-1H-pyrrolo[2,3-c]pyridin-7-one] returned an IC50 of 1800 nM.

On to `Cc1cc2c(-c3cccc(C(=O)N(C)C)c3)cn(CCC3CC3)c(=O)c2[nH]1` [Example 85, 3-[6-(2-cyclopropylethyl)-2-methyl-7-oxo-1H-pyrrolo[2,3-c]pyridin-4-yl]-N,N-dimethyl-benzamide], for which the half-maximal inhibitory concentration (IC50) was 480 nM. This IC50 is about 3.8-fold lower than that of the molecule before.
